From patent publication EP3409671B1, “ISOTHIAZOLE DERIVATIVES AS GPR120 AGONISTS FOR THE TREATMENT OF TYPE II DIABETES” (Janssen Pharmaceutica NV, priority 2014, dated 2015) come the findings set out here.

For orientation: EC50 means the concentration that produces a half-maximal response.

The target of experiment [1] is T1, short form of the GPR120 receptor (Homo sapiens, UniProt Q5NUL3).
T1 construct: host or cells: PathHunter CHO-K1 GPR120S β-Arrestin Cell Line
T1 sequence (Q5NUL3 1-361): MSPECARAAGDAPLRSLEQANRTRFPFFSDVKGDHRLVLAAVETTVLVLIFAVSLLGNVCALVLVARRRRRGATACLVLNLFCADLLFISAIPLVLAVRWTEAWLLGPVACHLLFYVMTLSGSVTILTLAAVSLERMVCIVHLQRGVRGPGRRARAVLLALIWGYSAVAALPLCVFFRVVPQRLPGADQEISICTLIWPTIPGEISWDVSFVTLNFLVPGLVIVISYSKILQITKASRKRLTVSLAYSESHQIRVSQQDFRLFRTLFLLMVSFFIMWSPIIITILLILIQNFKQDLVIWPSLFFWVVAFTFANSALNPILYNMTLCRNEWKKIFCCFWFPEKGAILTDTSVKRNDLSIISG
The experiment in a line: Human GPR120 DiscoveRx PathHunter Beta-Arrestin assay, Procedure β-arrestin B. The class given is cell-based. To be noted: PathHunter CHO-K1 GPR120S β-Arrestin Cell Line, 5000 cells/well, read-out: hGPR120 β-arrestin B EC50. An excerpt:
The binding of an agonist (medium/long chain fatty acids or small molecule agonists) to the G-protein-coupled receptor GPR120 activates phospholipase C, leading to release of intracellular Ca^+2 through the generation of inositol 1,4,5-trisphosphate (InsP3 or IP3). GPR120 activation can also trigger intracellular signaling via recruitment of Beta-Arrestin. In the present method, agonist-induced activation of the human GPR120 receptor is monitored through the use of PathHunter CHO-K1 GPR120 Beta-Arrestin Cell Line engineered by DiscoveRx, as detailed below. The cell lines are designed to co-express both the ProLink/Enzyme Donor (PK)-tagged GPCR and the Enzyme […] (EA)-tagged Beta-Arrestin fusion proteins. Upon GPR120 receptor stimulation / activation, the EA-tagged Beta-Arrestin portion is translocated to the tagged receptor, where the two enzyme fragments are brought within close proximity.
Under these conditions, these fragments can interact and form an active Beta-gal enzyme complex through Enzyme Fragment Complementation (EFC). This active Beta-gal complex can enzymatically hydrolyse the substrate to produce a detectable light signal; therefore, activation as a function of agonist concentration can be expressed as an EC50 value to determine relative compound activities. This in vitro assay therefore serves to assess compound agonist activity of the GPR120.
In Procedure β-arrestin B the cells used were PathHunter CHO-K1 GPR120S β-Arrestin Cell Line, expressing the short form of the GPR120 receptor (Accession #NM_181745), with 5000 cells/well. […]
The plates were read on an EnVision instrument, using Protocol name: Luminescence, Plate type: 384 Costar, Measurement height: 3 mm, Measurement time: 1s, Aperture: 384 Plate aperture. The %activity relative to the positive control was calculated using the following equation: %Activity = (Countcompound −Countvehicle)/(Countpostivite control −Countvehicle) × 100% [formula] […]

The target of another experiment is T2, Human GPR120 short form (Homo sapiens, UniProt Q5NUL3).
T2 construct: expressed in transfected cells
T2 sequence (Q5NUL3 1-361): T1 sequence (Q5NUL3 1-361)
The experiment in a line: Human GPR120 Calcium Flux Assay, Procedure Calcium B. Type of experiment: cell-based. To be noted: HEK-293 cells expressing Human GPR120 short form, FLIPR, 4200 cells/well; read-out: GPR120 Ca^2+ Assay B EC50. An excerpt:
This in vitro assay serves to assess test compound agonist activity against the short splice variant (SVS with Accession number NM_001195755.1 confirmed by sequencing data) of the GPR120 receptor. The Human Short splice variant #2 (NM_001195755.1) is missing an in-frame coding exon compared to variant 1 (the Human Long splice variant NM_181745.3), resulting in a shorter isoform (GPR120-S) lacking a 16 aa protein segment compared to isoform GPR120-L. The assay platform utilizes HEK-293 cells stably transfected to express the Human GPR120 short form. These cells are first loaded with the Ca^+2 sensitive dye, Fluo-4 NW. Upon stimulation, intracellular released Ca^+2 can bind to the dye and alter its fluorescence intensity. This increase in fluorescence signal, and thus the flux in intracellular [Ca^2+], is detected and quantitated by fluorescence imaging using a FLIPR reader. The effect of the agonist is measured as a function of concentration and used to calculate an EC50 based upon a response curve.
In this procedure 4200 cells/well were employed.
A Human GPR120 clone (Genbank accession number NM _001195755.1) was placed into the pcDNA3.1 mammalian expression vector carrying the neomycin resistance gene. A stable mammalian cell was generated by placing the above clone into a HEK293 background. Clonal cells responding to long chain fatty acids had expression levels of GPR120 confirmed by RT-qPCR. Human HEK-GPR120 cells were cultured in Dulbecco's Modified Eagle's Medium (DMEM)/F12 medium supplemented with 10% fetal bovine serum (FBS), 1% L-Glutamine and 1% penicillin/streptomycin and 0.5 mg/ml G-418. Cells were split 2 times a week to keep the cells in the log-phase growth.
In preparation for the assay, HEK cells stably transfected with Human GPR120 (2.5K cells per well in 25uL growth medium) were seeded into 384-well plates and then incubated overnight (37°C, 5% CO2). The next day, the media was changed to 20 µL assay buffer and the cell starved for 1h at 37°C. […]
The assay was performed on a FLIPR plate reader using the following parameters. Baseline was read for 10 seconds at 1 sec intervals. The program was set to transfer 10µL of ligand from compound plate to cell plate after baseline reading. […] After compound addition, each well was read for 300 sec, with measurements collected at 1 sec intervals.
The kinetic data from the FLIPR was based upon a 5 minute window for data collection. The fluorescence of each sample well was used for individual calculations of a normalized RFU value, which was defined as maximum response minus the minimum response. The normalized fluorescence reading (RFU) was calculated as follows: RFU = Fmax−Fmin [formula] […]
Background: A change in cytosolic calcium serves as a functional read-out for many receptors and channels.

For the compound `COc1cnc(-c2nsc(C(F)(F)F)c2COc2c(F)cc(CCC(=O)O)cc2F)s1` [Cpd 267, 3-(3,5-difluoro-4-((3-(5-methoxythiazol-2-yl)-5-(trifluoromethyl)isothiazol-4-yl)methoxy)phenyl)propanoic acid], the EC50 in experiment [1] was found to be 0.526 µM; at Human GPR120 short form it was 0.274 µM.

For the compound `Cc1c(CCC(=O)O)ccc(OCc2c(-c3ncc(Cl)s3)nsc2C(F)(F)F)c1C` [Cpd 269, 3-(4-((3-(5-chlorothiazol-2-yl)-5-(trifluoromethyl)isothiazol-4-yl)methoxy)-2,3-dimethylphenyl)propanoic acid], the values for the EC50 (in experiment [1]; on Human GPR120 short form) were 0.676 µM and 0.194 µM, respectively.

With `COc1cnc(-c2nsc(C(F)(F)F)c2COc2ccc(CCC(=O)O)c(C)c2C)s1` [Cpd 268, 3-(4-((3-(5-methoxythiazol-2-yl)-5-(trifluoromethyl)isothiazol-4-yl)methoxy)-2,3-dimethylphenyl)propanoic acid], the EC50 is 0.445 µM in experiment [1] and 0.473 µM at Human GPR120 short form.
